# In patent US20110263564A1, “PYRIDINE, BICYCLIC PYRIDINE AND RELATED ANALOGS AS SIRTUIN MODULATORS” (Sirtris Pharmaceuticals, Inc., priority 2008, published 2011):
# Biological target: T1, SIRT1 (Homo sapiens, UniProt Q96EB6)
# T1 sequence (Q96EB6 1-747): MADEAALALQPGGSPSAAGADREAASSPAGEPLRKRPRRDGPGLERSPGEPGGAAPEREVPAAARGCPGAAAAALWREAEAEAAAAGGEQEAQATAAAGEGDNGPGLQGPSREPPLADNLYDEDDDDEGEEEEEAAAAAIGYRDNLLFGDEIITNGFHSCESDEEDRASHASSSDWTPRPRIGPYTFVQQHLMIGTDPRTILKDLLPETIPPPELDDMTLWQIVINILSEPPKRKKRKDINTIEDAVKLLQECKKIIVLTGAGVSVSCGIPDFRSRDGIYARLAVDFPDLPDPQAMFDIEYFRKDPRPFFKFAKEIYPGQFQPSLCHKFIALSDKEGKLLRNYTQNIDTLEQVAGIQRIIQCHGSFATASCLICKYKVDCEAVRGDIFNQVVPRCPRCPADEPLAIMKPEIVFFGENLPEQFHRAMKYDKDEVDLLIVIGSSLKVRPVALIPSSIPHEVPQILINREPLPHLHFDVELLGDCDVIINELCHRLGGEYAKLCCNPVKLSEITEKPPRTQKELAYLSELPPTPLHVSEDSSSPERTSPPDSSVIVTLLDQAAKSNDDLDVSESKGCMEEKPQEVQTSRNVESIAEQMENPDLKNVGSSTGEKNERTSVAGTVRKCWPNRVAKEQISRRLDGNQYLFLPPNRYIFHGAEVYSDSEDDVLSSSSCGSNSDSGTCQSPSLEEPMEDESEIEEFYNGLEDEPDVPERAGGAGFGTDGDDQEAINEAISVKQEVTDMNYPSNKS
# Experiment: Mass spectrometry based assay of SIRT1 activity (deacetylation of a p53-based acetylated peptide)
# Assay type: biochemical
# Conditions: 10 nM SIRT1, 0.5 μM peptide substrate, 120 μM βNAD+, 25 minutes at 25° C.; for Emax: read-out: % FOLD ACT. (percent maximum fold activation)
# Description: A mass spectrometry based assay was used to identify modulators of SIRT1 activity. The mass spectrometry based assay utilizes a peptide having 20 amino acid residues as follows: Ac-EE-K(biotin)-GQSTSSHSK(Ac)NleSTEG-K(5TMR)-EE-NH2 (SEQ ID NO: 1) wherein K(Ac) is an acetylated lysine residue and Nle is a norleucine. The peptide is labeled with the fluorophore 5TMR (excitation 540 nm/emission 580 nm) at the C-terminus. The sequence of the peptide substrate is based on p53 with several modifications. In addition, the methionine residue naturally present in the sequence was replaced with the norleucine because the methionine may be susceptible to oxidation during synthesis and purification.
# The mass spectrometry assay is conducted as follows: 0.5 μM peptide substrate and 120 μM βNAD^+ is incubated with 10 nM SIRT1 for 25 minutes at 25° C. in a reaction buffer (50 mM Tris-acetate pH 8, 137 mM NaCl, 2.7 mM KCl, 1 mM MgCl2, 5 mM DTT, 0.05% BSA). Test compounds may be added to the reaction as described above. […] After the 25 minute incubation with SIRT1, 10 μL of 10% formic acid is added to stop the reaction. Reactions are sealed and frozen for later mass spec analysis. Determination of the mass of the substrate peptide allows for precise determination of the degree of acetylation (i.e. starting material) as compared to deacetylated peptide (product).
# A control for inhibition of sirtuin activity is conducted by adding 1 μL of 500 mM nicotinamide as a negative control at the start of the reaction (e.g., permits determination of maximum sirtuin inhibition). A control for activation of sirtuin activity is conducted using 10 nM of sirtuin protein, with 1 μL of DMSO in place of compound, to determine the amount of deacetylation of the substrate at a given timepoint within the linear range of the assay. This timepoint is the same as that used for test compounds and, within the linear range, the endpoint represents a change in velocity.
# For the above assay, SIRT1 protein was expressed and purified as follows. […] The protein was expressed by induction with 1 mM IPTG as an N-terminal His-tag fusion protein at 18° C. overnight and harvested at 30,000×g. Cells were lysed with lysozyme in lysis buffer (50 mM Tris-HCl, 2 mM Tris[2-carboxyethyl]phosphine (TCEP), 10 μM ZnCl2, 200 mM NaCl) and further treated with sonication for 10 min for complete lysis. The protein was purified over a Ni-NTA column (Amersham) and fractions containing pure protein were pooled, concentrated and run over a sizing column (Sephadex S200 26/60 global). The peak containing soluble protein was collected and run on an Ion-exchange column (MonoQ). Gradient elution (200 mM-500 mM NaCl) yielded pure protein. This protein was concentrated and dialyzed against dialysis buffer (20 mM Tris-HCl, 2 mM TCEP) overnight. The protein was aliquoted and frozen at −80° C. until further use.
# Sirtuin modulating compounds that activated SIRT1 were identified using the assay described above and are shown below in Table 1 for compounds of Formula (III)). The EC1.5 values represent the concentration of test compounds that result in 150% activation of SIRT1. The EC1.5 values for the activating compounds in Table 1 are represented by A (EC1.5<10.0 μM), B (EC1.5 10-25 μM), C (EC1.5>25 μM). The percent maximum fold activation is represented by A (Fold activation>200%) or B (Fold Activation<200%); “NT” means not tested; “ND” mean not determinable.
SMILES,EC1.5 (concentration of test compound that results in 150% activation of SIRT1),Emax [%]
"Cc1cncc(-c2ccc3c(n2)C(NC(=O)c2cnccn2)CCC3)c1 (stereo not shown) [Compound 200, N-(2-(5-methylpyridin-3-yl)-5,6,7,8-tetrahydroquinolin-8-yl)pyrazine-2-carboxamide]",C (EC1.5>25 μM),–
CC(NC(=O)c1cscn1)c1cccc(-c2cccc(C(F)(F)F)c2)n1 (stereo not shown) [Compound 203],B (EC1.5 10-25 μM),< 200
CC(NC(=O)c1cnccn1)c1cccc(-c2cccc(OC(F)(F)F)c2)n1 (stereo not shown) [Compound 207],B (EC1.5 10-25 μM),> 200
CC(C(=O)Nc1cccnc1)c1cccc(-c2cccc(C(F)(F)F)c2)n1 (stereo not shown) [Compound 210],C (EC1.5>25 μM),–
CC(NC(=O)c1cccnc1)c1cccc(-c2cccc(C(F)(F)F)c2)n1 (stereo not shown) [Compound 212],A (EC1.5<10.0 μM),> 200
CC(NC(=O)c1cnccn1)c1cccc(-c2cccnc2)n1 (stereo not shown) [Compound 213],C (EC1.5>25 μM),–
"CC(C(=O)Nc1cnccn1)c1cccc(-c2cccc(C(F)(F)F)c2)n1 (stereo not shown) [Compound 214, N-2-pyrazinyl-2-{6-[3-(trifluoromethyl)phenyl]-2-pyridinyl}propanamide]",C (EC1.5>25 μM),–
CC(NC(=O)c1ccccc1)c1cccc(-c2cccc(C(F)(F)F)c2)n1 (stereo not shown) [Compound 215],C (EC1.5>25 μM),–
CC(NC(=O)c1cccnc1)c1cccc(-c2cccc(OC(F)(F)F)c2)n1 (stereo not shown) [Compound 218],C (EC1.5>25 μM),–

# Second part, the compound after the results:
EC1.5 (concentration of test compound that results in 150% activation of SIRT1),Emax [%],SMILES
C (EC1.5>25 μM),< 200,CC(C)c1cccc(-c2cccc(C(C)NC(=O)c3cscn3)n2)c1 (stereo not shown) [Compound 201]
C (EC1.5>25 μM),< 200,CC(C)c1cccc(-c2cccc(C(C)NC(=O)c3cnccn3)n2)c1 (stereo not shown) [Compound 202]
B (EC1.5 10-25 μM),> 200,"CC(NC(=O)c1cnccn1)c1cccc(-c2cccc(C(F)(F)F)c2)n1 (stereo not shown) [Compound 204, N-(1-(6-(3-(trifluoromethyl)phenyl)pyridin-2-yl)ethyl)pyrazine-2-carboxamide]"
C (EC1.5>25 μM),< 200,O=C(NC1CCCc2ccc(-c3cccc(C(F)(F)F)c3)nc21)c1cscn1 (stereo not shown) [Compound 205]
A (EC1.5<10.0 μM),> 200,"O=C(NC1CCCc2ccc(-c3cccc(C(F)(F)F)c3)nc21)c1cnccn1 (stereo not shown) [Compound 206, N-(2-(3-(trifluoromethyl)phenyl)-5,6,7,8-tetrahydroquinolin-8-yl)pyrazine-2-carboxamide]"
C (EC1.5>25 μM),–,CC(NC(=O)c1cnccn1)c1cccc(-c2ccccc2)n1 (stereo not shown) [Compound 211]
C (EC1.5>25 μM),–,CC(NC(=O)c1cccnc1)c1cccc(-c2cccc(C(F)(F)F)c2)n1 (stereo not shown) [Compound 216]
C (EC1.5>25 μM),–,CC(NC(=O)c1ccccc1)c1cccc(-c2ccccc2)n1 (stereo not shown) [Compound 217]
C (EC1.5>25 μM),–,CC(NC(=O)c1cccc(CN2CCCC2)n1)c1cccc(-c2cccc(C(F)(F)F)c2)n1 (stereo not shown) [Compound 219]
C (EC1.5>25 μM),–,CC(NC(=O)c1cccc(CN2CCCC2)n1)c1cccc(-c2cccnc2)n1 (stereo not shown) [Compound 220]
C (EC1.5>25 μM),–,CC(C(=O)Nc1nccs1)c1cccc(-c2cccc(C(F)(F)F)c2)n1 (stereo not shown) [Compound 221]
